Results on 62 sequences are retold here after the supplement of paper PMC11208160.

The first data set in a line: recombinant barcode read abundance after kanamycin selection (control-corrected) (log10(CPM+1)); higher = more efficient recombination; sequences stand for … in AGTGCAGAGAAAATCGGCCAGTTTTCTCTGCCTGCAGTCCGCATGCCGT…ATTTATGCAGCGGACTGCCTTTCTCCCAAAGTGATAAACCGGACAGTATCATGGACCGGTTTTCCCGGTAATCCGTATTTGCAAGGTTGGTTTCACT; site = the 11-nt target. Here is the method:
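Same pooled E. coli target screen (IS621 bridge recombinase, kanamycin selection, control-corrected CPM, mean of 2 biological replicates). Here the two core-binding nucleotides of the LTG and RTG of the bridge RNA target-binding loop are mutated. Target and donor CT cores are held constant, and the other 9 guide positions match the target. The target is read from the library oligo sequence. Molecule = full bridge RNA written as DNA: nt 1-80 from the library oligo, rest WT scaffold.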
Consider “AAACACACATGGGTTCTAACCTGTTGCCTAG [AAACACACTAG_LTGcore_CA_RTGcore_CT] (site AAACACACTAG) (LTG core: CA, RTG core: CT)”, for which the “recombinant barcode read abundance (log10)” value stood at 0.327.
The same measure, in the same setting: the result for “AAACACACTTGGGTTCTAACCTGTTGCCTAA [AAACACACTAG_LTGcore_CT_RTGcore_TT] (site AAACACACTAG) (LTG core: CT, RTG core: TT)” reads 1.12; that for “AAACACACTTGGGTTCTAACCTGTTGCCTCC [AAACACACTAG_LTGcore_CT_RTGcore_GG] (site AAACACACTAG) (LTG core: CT, RTG core: GG)”, 1.45.
On the same count and under the same terms, next, “AAACACACTTGGGTTCTAACCTGTTGCCTCG [AAACACACTAG_LTGcore_CT_RTGcore_CG] (site AAACACACTAG) (LTG core: CT, RTG core: CG)”: 1.01; “AAACACACTTGGGTTCTAACCTGTTGCCTGC [AAACACACTAG_LTGcore_CT_RTGcore_GC] (site AAACACACTAG) (LTG core: CT, RTG core: GC)”: 0.456.
For “AAACACAGCTGGGTTCTAACCTGTTGCCTGC [AAACACACTAG_LTGcore_GC_RTGcore_GC] (site AAACACACTAG) (LTG core: GC, RTG core: GC)”, the “recombinant barcode read abundance (log10)” value came to 0.0607.
As to “AAACACAGTTGGGTTCTAACCTGTTGCCTAC [AAACACACTAG_LTGcore_GT_RTGcore_GT] (site AAACACACTAG) (LTG core: GT, RTG core: GT)”, the “recombinant barcode read abundance (log10)” value worked out at 0.112.
For “AAACACAGTTGGGTTCTAACCTGTTGCCTAG [AAACACACTAG_LTGcore_GT_RTGcore_CT] (site AAACACACTAG) (LTG core: GT, RTG core: CT)”, the “recombinant barcode read abundance (log10)” value was found to be 0.804.
On the same count and under the same terms, next, “AAACACATCTGGGTTCTAACCTGTTGCCTAG [AAACACACTAG_LTGcore_TC_RTGcore_CT] (site AAACACACTAG) (LTG core: TC, RTG core: CT)”: 0.222; “AAACAGTATTGGGTTCTAACCTGTTGCCTAG [AAACAGTCTAG_LTGcore_AT_RTGcore_CT] (site AAACAGTCTAG) (LTG core: AT, RTG core: CT)”: 0.571.
The same measure, in the same setting: next, “AAACAGTCCTGGGTTCTAACCTGTTGCCTAG [AAACAGTCTAG_LTGcore_CC_RTGcore_CT] (site AAACAGTCTAG) (LTG core: CC, RTG core: CT)”: 0.93.

Another data set in a line: recombinant barcode read abundance after kanamycin selection (control-corrected) (log10(CPM+1)); higher = more efficient recombination; sequences stand for … in AGTGCAGAGAAAATCGGCCAGTTTTCTCTGCCTGCAGTCCGCATGCCGT…AGATTTATGCAGCGGACTGCCTTTCTCCCAAAGTGATAAACCGGACAGTATCATGGACCGGTTTTCCCGGTAATCCGTATTTGCAAGGTTGGTTTCACT; site = the 11-nt target. The procedure, abridged: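 Targets were screened in pooled form in E. coli against IS621 bridge RNA target-binding loops. Recombination efficiency is based on barcode counts at recombinant junctions in counts per million, averaged and corrected for the control. Numbers are shown as log10(CPM+1), with duplicate plates on chloramphenicol/ampicillin LB agar (control) or chloramphenicol/ampicillin/kanamycin with 0.1 mM IPTG.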
“TTCCGTCCTTGGGTTCTAACCTGTTGCTT (site TTCCGTCCTAA)”: the “recombinant barcode read abundance (log10)” value was determined as 0.0911.
On the same count and under the same terms, the result for “TTCTATGCTTGGGTTCTAACCTGTTGCCT (site TCCTGTGCTAG)” reads 0.24; that for “TTCTATGCTTGGGTTCTAACCTGTTGCCT (site TTCTATGCTAG)”, 0.187.
Still for that read-out and setting: the result for “TTCTTCCCTTGGGTTCTAACCTGTTGCCT (site TTCTTCCCTAG)” reads 0.235.
The same measure, in the same setting: next, “TTCTTCCCTTGGGTTCTAACCTGTTGCCT (site TTGTACCCTAG)”: 0.1; “TTGAATGCTTGGGTTCTAACCTGTTGCCT (site TTGAATGCTAG)”: 1.15.
With “TTGAATGCTTGGGTTCTAACCTGTTGCCT (site TTGACTGCTAG)”, the “recombinant barcode read abundance (log10)” value was found to be 0.0516.
Turning to “TTGAATGCTTGGGTTCTAACCTGTTGCCT (site TTGAGTGCTAG)”, the “recombinant barcode read abundance (log10)” value amounted to 0.0419.
As for “TTGAATGCTTGGGTTCTAACCTGTTGCCT (site TTGATTGCTAG)”, the “recombinant barcode read abundance (log10)” value was determined as 0.214.
As to “TTGAGGACTTGGGTTCTAACCTGTTGCGT (site TTGAGGACTAC)”, the “recombinant barcode read abundance (log10)” value is 2.22.
Same read-out and setting: the result for “TTGAGGACTTGGGTTCTAACCTGTTGCGT (site TTGAGGACTTG)” reads 0.147.
On the same count and under the same terms, next, “TTGATTACTTGGGTTCTAACCTGTTGCCA (site TTGAGTACTCG)”: 0.0598.
Take “TTGATTACTTGGGTTCTAACCTGTTGCCA (site TTGATTACTTG)”: the “recombinant barcode read abundance (log10)” value is 0.0149.
As for “TTGCCGACTTGGGTTCTAACCTGTTGCCA (site TTGACGACTTG)”, the “recombinant barcode read abundance (log10)” value is 0.608.
On to “TTGCCGACTTGGGTTCTAACCTGTTGCCA (site TTGCCGACTTG)”, for which the “recombinant barcode read abundance (log10)” value came out at 0.503.
On the same count and under the same terms, next, “TTGCCGACTTGGGTTCTAACCTGTTGCCA (site TTGGCGACTTG)”: 0.0806; “TTGCCGACTTGGGTTCTAACCTGTTGCCA (site TTGTCGACTTG)”: 0.116; “TTGCCTTCTTGGGTTCTAACCTGTTGCCT (site TAGCCTTCTAG)”: 0.106.
On the same count and under the same terms, the result for “TTGCCTTCTTGGGTTCTAACCTGTTGCCT (site TCGCCTTCTAG)” reads 0.0687; that for “TTGCCTTCTTGGGTTCTAACCTGTTGCCT (site TGGCCTTCTAG)”, 0.606; that for “TTGCCTTCTTGGGTTCTAACCTGTTGCCT (site TTGCCTTCTAG)”, 0.686.
Still for that read-out and setting: next, “TTGGCAGCTTGGGTTCTAACCTGTTGCCT (site TTGGAAGCTAG)”: 0.061; “TTGGCAGCTTGGGTTCTAACCTGTTGCCT (site TTGGCAGCTAG)”: 2.08; “TTGGCAGCTTGGGTTCTAACCTGTTGCCT (site TTGGGAGCTAG)”: 0.11.
Regarding “TTGGCAGCTTGGGTTCTAACCTGTTGCCT (site TTGGTAGCTAG)”, the “recombinant barcode read abundance (log10)” value worked out at 0.0352.
Still for that read-out and setting: next, “TTGGCCTCTTGGGTTCTAACCTGTTGCCT (site GTGGCGTCTAG)”: 0.15.
Regarding “TTGGCCTCTTGGGTTCTAACCTGTTGCCT (site TTGGCCTCTAG)”, the “recombinant barcode read abundance (log10)” value was found to be 1.27.
Take “TTGGCGACTTGGGTTCTAACCTGTTGCCA (site TTGACGACTTG)”: the “recombinant barcode read abundance (log10)” value came out at 0.221.
Still for that read-out and setting: the result for “TTGGCGACTTGGGTTCTAACCTGTTGCCA (site TTGCCGACTTG)” reads 0.0473.
Still for that read-out and setting: next, “TTGGCGACTTGGGTTCTAACCTGTTGCCA (site TTGGCGACTTG)”: 0.118.
In the case of “TTGGCGACTTGGGTTCTAACCTGTTGCCA (site TTGTCGACTTG)”, the “recombinant barcode read abundance (log10)” value was found to be 0.0276.
Same read-out and setting: the result for “TTGGGAGCTTGGGTTCTAACCTGTTGCTG (site TTCGGAGCTCA)” reads 0.426; that for “TTGGGAGCTTGGGTTCTAACCTGTTGCTG (site TTGGGAGCTCA)”, 2.92; that for “TTGGTACCTTGGGTTCTAACCTGTTGCCT (site TTGGTACCTAG)”, 2.41.
On the same count and under the same terms, the result for “TTGGTACCTTGGGTTCTAACCTGTTGCCT (site TTGGTCCCTAG)” reads 0.204; that for “TTGGTACCTTGGGTTCTAACCTGTTGCCT (site TTGGTGCCTAG)”, 0.138.
Same read-out and setting: the result for “TTGGTACCTTGGGTTCTAACCTGTTGCCT (site TTGGTTCCTAG)” reads 0.116; that for “TTGGTAGCTTGGGTTCTAACCTGTTGCCT (site TTGGAAGCTAG)”, 0.255.
For the sequence “TTGGTAGCTTGGGTTCTAACCTGTTGCCT (site TTGGCAGCTAG)”, the “recombinant barcode read abundance (log10)” value stood at 0.148.
Regarding “TTGGTAGCTTGGGTTCTAACCTGTTGCCT (site TTGGGAGCTAG)”, the “recombinant barcode read abundance (log10)” value was found to be 0.127.
The same measure, in the same setting: the result for “TTGGTAGCTTGGGTTCTAACCTGTTGCCT (site TTGGTAGCTAG)” reads 1.63.
With “TTGGTGCCTTGGGTTCTAACCTGTTGCCT (site TTGGTACCTAG)”, the “recombinant barcode read abundance (log10)” value is 1.97.
The same measure, in the same setting: next, “TTGGTGCCTTGGGTTCTAACCTGTTGCCT (site TTGGTCCCTAG)”: 0.0442; “TTGGTGCCTTGGGTTCTAACCTGTTGCCT (site TTGGTGCCTAG)”: 2.13; “TTGGTGCCTTGGGTTCTAACCTGTTGCCT (site TTGGTTCCTAG)”: 0.0399.
Turning to “TTGTACCCTTGGGTTCTAACCTGTTGCCT (site TTCTTCCCTAG)”, the “recombinant barcode read abundance (log10)” value amounted to 0.
As to “TTGTACCCTTGGGTTCTAACCTGTTGCCT (site TTGTACCCTAG)”, the “recombinant barcode read abundance (log10)” value was determined as 1.45.
Still for that read-out and setting: next, “TTGTCGTCTTGGGTTCTAACCTGTTGCCT (site ATGTAGTCTAG)”: 0.0378; “TTGTCGTCTTGGGTTCTAACCTGTTGCCT (site TTGTCGTCTAG)”: 1.25; “TTGTGAGCTTGGGTTCTAACCTGTTGCGC (site AGTCACACTCT)”: 0.182.
Still for that read-out and setting: the result for “TTGTGAGCTTGGGTTCTAACCTGTTGCGC (site TTGTGAGCTGC)” reads 1.68.
